ChEMBL document CHEMBL5042531, “N-Substituted 5-(1H-Indol-2-yl)-2-methoxyanilines Are Allosteric Inhibitors of the Linoleate Oxygenase Activity of Selected Mammalian ALOX15 Orthologs: Mechanism of Action” (J Med Chem, 2022)
Each block holds one molecule with its values, some of them ahead of it. Activity calls are given as the source filed them. No cut-off for these calls is given here.

Key:
[1] = biological target: T1, Polyunsaturated fatty acid lipoxygenase ALOX15 (Oryctolagus cuniculus, UniProt P12530); experiment: Inhibition of wild type rabbit N-terminal His-tagged ALOX15 expressed in Escherichia coli using linoleic acid as substrate by spectrophotometric assay
T1 sequence (P12530 whole entry): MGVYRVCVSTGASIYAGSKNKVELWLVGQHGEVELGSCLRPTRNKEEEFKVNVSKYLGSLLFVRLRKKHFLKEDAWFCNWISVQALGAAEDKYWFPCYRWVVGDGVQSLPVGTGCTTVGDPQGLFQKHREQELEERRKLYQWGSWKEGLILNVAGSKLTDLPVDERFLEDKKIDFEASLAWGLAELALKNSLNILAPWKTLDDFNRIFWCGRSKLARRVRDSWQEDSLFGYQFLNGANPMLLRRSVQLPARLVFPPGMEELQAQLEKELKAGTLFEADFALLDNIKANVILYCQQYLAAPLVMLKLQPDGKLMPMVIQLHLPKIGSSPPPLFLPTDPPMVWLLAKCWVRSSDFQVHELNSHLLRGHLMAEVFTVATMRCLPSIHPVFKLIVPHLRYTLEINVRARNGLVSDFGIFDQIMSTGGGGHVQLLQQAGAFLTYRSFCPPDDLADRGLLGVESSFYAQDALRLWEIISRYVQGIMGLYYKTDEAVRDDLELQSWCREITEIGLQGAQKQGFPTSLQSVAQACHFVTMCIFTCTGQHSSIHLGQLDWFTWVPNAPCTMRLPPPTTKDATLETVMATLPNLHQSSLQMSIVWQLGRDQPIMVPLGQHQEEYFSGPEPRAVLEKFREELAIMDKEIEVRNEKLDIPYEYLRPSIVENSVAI

[2] = biological target: T1, Polyunsaturated fatty acid lipoxygenase ALOX15; experiment: Inhibition of wild type rabbit N-terminal His-tagged ALOX15 expressed in Escherichia coli using arachidonic acid as substrate by spectrophotometric assay
[3] = biological target: T2, Polyunsaturated fatty acid lipoxygenase ALOX15 (Oryctolagus cuniculus) (UniProt P12530); experiment: Selectivity ratio of IC50 for inhibition of wild type Rabbit N-terminal His-tagged ALOX15 expressed in Escherichia coli using linoleic acid as substrate to IC50 for inhibition of wild type rabbit N-terminal His-tagged ALOX15 expressed in Escherichia coli using arachidonic acid as substrate by spectrophotometric assay
T2 sequence (whole entry): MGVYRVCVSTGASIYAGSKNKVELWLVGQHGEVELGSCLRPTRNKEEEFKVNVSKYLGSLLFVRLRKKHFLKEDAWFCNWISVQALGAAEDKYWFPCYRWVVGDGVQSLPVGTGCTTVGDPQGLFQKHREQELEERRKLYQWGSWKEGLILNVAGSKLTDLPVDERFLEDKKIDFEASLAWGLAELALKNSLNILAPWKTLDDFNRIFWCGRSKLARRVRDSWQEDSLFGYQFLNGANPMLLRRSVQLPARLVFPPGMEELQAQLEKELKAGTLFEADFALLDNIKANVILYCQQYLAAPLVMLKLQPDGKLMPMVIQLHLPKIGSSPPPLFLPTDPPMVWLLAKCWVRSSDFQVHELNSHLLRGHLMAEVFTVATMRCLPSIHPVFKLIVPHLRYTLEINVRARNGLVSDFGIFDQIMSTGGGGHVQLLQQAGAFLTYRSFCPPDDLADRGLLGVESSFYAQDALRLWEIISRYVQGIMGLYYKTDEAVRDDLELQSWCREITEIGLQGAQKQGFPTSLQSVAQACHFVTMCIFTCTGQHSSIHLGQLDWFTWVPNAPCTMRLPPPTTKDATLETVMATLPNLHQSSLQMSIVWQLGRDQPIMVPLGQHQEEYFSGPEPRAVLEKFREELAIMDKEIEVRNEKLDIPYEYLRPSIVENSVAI

[4] = biological target: T2, Polyunsaturated fatty acid lipoxygenase ALOX15 (Oryctolagus cuniculus); experiment: Inhibition of wild type rabbit N-terminal His-tagged ALOX15 expressed in Escherichia coli assessed as decrease in Kcat using linoleic acid as substrate
[5] = biological target: T2, Polyunsaturated fatty acid lipoxygenase ALOX15 (Oryctolagus cuniculus); experiment: Inhibition of wild type rabbit N-terminal His-tagged ALOX15 expressed in Escherichia coli assessed as effect on Km using linoleic acid as substrate
[6] = biological target: T1, Polyunsaturated fatty acid lipoxygenase ALOX15; experiment: Non-competitive inhibition of wild type rabbit N-terminal His-tagged ALOX15 expressed in Escherichia coli assessed as inhibition constant using linoleic acid as substrate
[7] = biological target: T2, Polyunsaturated fatty acid lipoxygenase ALOX15 (Oryctolagus cuniculus); experiment: Inhibition of wild type rabbit N-terminal His-tagged ALOX15 expressed in Escherichia coli assessed as decrease in Kcat using arachidonic acid as substrate
[8] = biological target: T2, Polyunsaturated fatty acid lipoxygenase ALOX15 (Oryctolagus cuniculus); experiment: (§1) Selectivity ratio of IC50 for inhibition of wild type rabbit N-terminal His-tagged ALOX15 expressed in Escherichia coli using linoleic acid as substrate to IC50 for inhibition of wild type rabbit N-terminal His-tagged ALOX15 expressed in Escherichia coli using arachidonic acid as substrate
[9] = biological target: T2, Polyunsaturated fatty acid lipoxygenase ALOX15 (Oryctolagus cuniculus); experiment: Effect on rabbit wild type ALOX15-mediated product pattern using arachidonic acid as substrate by 4 uM by RP-HPLC analysis
[10] = biological target: T1, Polyunsaturated fatty acid lipoxygenase ALOX15; experiment: Mixed mode inhibition of wild type Rabbit N-terminal His-tagged ALOX15 expressed in Escherichia coli assessed as inhibition constant using arachidonic acid as substrate
[11] = Inhibition of rabbit N-terminal His-tagged ALOX15 L183E/L192E double mutant expressed in Escherichia coli linoleic acid as substrate by spectrophotometric assay; parameters: species or system Oryctolagus cuniculus
[12] = Inhibition of rabbit N-terminal His-tagged ALOX15 L183E/L192E double mutant expressed in Escherichia coli arachidonic acid as substrate by spectrophotometric assay; parameters: species or system Oryctolagus cuniculus
[13] = biological target: T1, Polyunsaturated fatty acid lipoxygenase ALOX15; experiment: Mixed mode inhibition of wild type Rabbit N-terminal His-tagged ALOX15 expressed in Escherichia coli assessed as inhibition constant using linoleic acid as substrate
Oryctolagus cuniculus [14] = species on record: Oryctolagus cuniculus; experiment: Effect on rabbit wild type ALOX15 Ile418Ala mutant-mediated product pattern using arachidonic acid as substrate by 4 uM by RP-HPLC analysis
[15] = biological target: T3, Polyunsaturated fatty acid lipoxygenase ALOX15 (Mus musculus) (UniProt P39654); experiment: Inhibition of recombinant mouse N-terminal His-tagged ALOX15 expressed in Escherichia coli Rosetta2(DE3)pLysS at 2 uM using linoleic acid as substrate by HPLC analysis
T3 sequence (whole entry): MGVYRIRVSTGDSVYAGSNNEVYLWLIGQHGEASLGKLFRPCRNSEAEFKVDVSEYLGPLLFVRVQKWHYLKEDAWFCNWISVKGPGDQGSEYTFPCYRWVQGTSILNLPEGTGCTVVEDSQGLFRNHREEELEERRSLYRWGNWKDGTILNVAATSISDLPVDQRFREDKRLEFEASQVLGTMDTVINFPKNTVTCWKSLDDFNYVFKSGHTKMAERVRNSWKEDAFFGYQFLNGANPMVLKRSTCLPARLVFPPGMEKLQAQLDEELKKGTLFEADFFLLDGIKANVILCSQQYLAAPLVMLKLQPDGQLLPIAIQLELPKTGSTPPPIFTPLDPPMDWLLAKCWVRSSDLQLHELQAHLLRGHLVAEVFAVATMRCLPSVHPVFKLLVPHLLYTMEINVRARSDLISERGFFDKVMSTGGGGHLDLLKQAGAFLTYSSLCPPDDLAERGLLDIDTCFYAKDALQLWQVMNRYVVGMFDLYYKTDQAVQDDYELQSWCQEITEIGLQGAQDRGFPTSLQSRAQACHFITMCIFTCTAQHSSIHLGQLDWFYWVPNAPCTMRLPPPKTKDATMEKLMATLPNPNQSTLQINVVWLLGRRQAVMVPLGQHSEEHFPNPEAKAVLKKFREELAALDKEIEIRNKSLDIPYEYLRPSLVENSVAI

[16] = biological target: T3, Polyunsaturated fatty acid lipoxygenase ALOX15 (Mus musculus); experiment: Inhibition of recombinant mouse N-terminal His-tagged ALOX15 expressed in Escherichia coli Rosetta2(DE3)pLysS at 2 uM using arachidonic acid as substrate by HPLC analysis
Oryctolagus cuniculus [17] = species on record: Oryctolagus cuniculus; experiment: Effect on rabbit wild type ALOX15 Ile418Ala mutant-mediated product pattern assessed as reduction in 12-H(p)ETE formation using arachidonic acid as substrate by 4 uM by RP-HPLC analysis
[18] = biological target: T4, Polyunsaturated fatty acid lipoxygenase ALOX15 (Homo sapiens) (UniProt P16050); experiment: as §1, with “recombinant human” for “wild type rabbit”, “coli Rosetta2(DE3)pLysS” for “coli”
T4 sequence (whole entry): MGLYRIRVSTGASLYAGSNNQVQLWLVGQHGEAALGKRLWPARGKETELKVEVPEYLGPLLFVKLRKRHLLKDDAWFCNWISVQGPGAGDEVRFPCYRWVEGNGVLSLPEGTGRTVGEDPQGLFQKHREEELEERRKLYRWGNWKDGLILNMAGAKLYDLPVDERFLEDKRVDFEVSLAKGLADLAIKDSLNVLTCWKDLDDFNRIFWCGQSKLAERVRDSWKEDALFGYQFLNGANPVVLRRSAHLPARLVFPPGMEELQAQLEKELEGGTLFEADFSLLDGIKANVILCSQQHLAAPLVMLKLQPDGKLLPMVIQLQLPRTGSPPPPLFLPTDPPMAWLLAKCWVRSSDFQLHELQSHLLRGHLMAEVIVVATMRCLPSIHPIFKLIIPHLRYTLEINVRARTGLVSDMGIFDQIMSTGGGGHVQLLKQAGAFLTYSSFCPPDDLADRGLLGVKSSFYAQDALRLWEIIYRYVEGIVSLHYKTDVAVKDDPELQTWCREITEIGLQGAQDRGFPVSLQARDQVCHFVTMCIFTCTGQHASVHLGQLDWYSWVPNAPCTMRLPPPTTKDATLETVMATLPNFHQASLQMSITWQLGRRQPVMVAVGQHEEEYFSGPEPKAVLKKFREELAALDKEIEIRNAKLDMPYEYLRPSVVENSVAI

[19] = compound: COc1ccc(-c2cc3cc(F)ccc3[nH]2)cc1NS(=O)(=O)NC(=O)OCC(C)C; experiment: Inhibition of wild type Rabbit N-terminal His-tagged ALOX15 expressed in Escherichia coli assessed as effect on Km using arachidonic acid as substrate; details: Oryctolagus cuniculus

- IC50 [1]: 30 µM
- IC50 [2]: > 50 µM
Molecule: CC(C)COC(=O)NS(=O)(=O)Nc1cccc(-c2cc3ccccc3[nH]2)c1

- IC50 [1]: 0.42 µM
- IC50 [2]: 20.8 µM
- Ratio IC50 [3]: 0.02
- Activity [4]: Active
- Activity [5]: Active
- Ki [6]: 0.29 µM
- inhibition [7]: Active
Molecule: COc1ccc(-c2cc3cc(F)ccc3[nH]2)cc1NS(=O)(=O)NC(=O)OCC(C)C

- IC50 [1]: 0.54 µM
- IC50 [2]: 23.3 µM
- Ratio IC50 [3]: 0.023
Molecule: C=CCOC(=O)NS(=O)(=O)Nc1cc(-c2cc3cc(F)ccc3[nH]2)ccc1OC

- IC50 [1]: 1.45 µM
- IC50 [2]: > 50 µM
Molecule: COc1ccc(-c2cc3ccccc3[nH]2)cc1NS(=O)(=O)NC(=O)OCC(C)C

- IC50 [1]: 0.63 µM
- IC50 [2]: 43.3 µM
- Ratio IC50 [3]: 0.014
Molecule: C=CCOC(=O)NS(=O)(=O)Nc1cc(-c2cc3ccccc3[nH]2)ccc1OC

- Ratio IC50 [8]: 0.22
Molecule: CCCCc1ccc(S(=O)(=O)NCCc2c(-c3ccc(OC)cc3)[nH]c3ccccc23)cc1

- Activity [9]: inactive
- IC50 [1]: 1.55 µM
- IC50 [2]: 2.79 µM
- Ratio IC50 [3]: 0.55
- Ki [6]: 0.79 µM
- Ki [10]: 3.13 µM
- IC50 [11]: 7.02 µM
- IC50 [12]: 4.95 µM
- Ki [13]: 0.79 µM
- Activity (Oryctolagus cuniculus [14]): inactive
Molecule: CCCCCCCCOC(=O)NS(=O)(=O)Nc1cccc(-c2cc3ccccc3[nH]2)c1

- Ratio IC50 [8]: 0.02
Molecule: CCCCCc1ccc(S(=O)(=O)NCCc2nc(-c3ccccn3)[nH]c2-c2ccc(OC)cc2)cc1

- Activity [9]: inactive
- inhibition [15]: inactive
- inhibition [16]: inactive
- Activity [4]: Active
- Activity [5]: Active
- inhibition [7]: Active
- Activity (Oryctolagus cuniculus [17]): Active
Molecule: CCCCCCCCOC(=O)NS(=O)(=O)Nc1cc(-c2cc3ccccc3[nH]2)ccc1OC

- IC50 [1]: 15.4 µM
- IC50 [2]: > 50 µM
Molecule: C=CCOC(=O)NS(=O)(=O)Nc1cccc(-c2cc3ccccc3[nH]2)c1

- Ratio IC50 [18]: 0.03
Molecule: COc1ccc(-c2cc3cc(F)c(F)cc3[nH]2)cc1NS(=O)(=O)NC(=O)OCC(C)C

- IC50 [1]: 0.047 µM
- IC50 [2]: 1.08 µM
- Ratio IC50 [3]: 0.043
Molecule: CCCCCCCCOC(=O)NS(=O)(=O)Nc1cc(-c2cc3cc(F)ccc3[nH]2)ccc1OC

- Ratio IC50 [8]: 0.8
Molecule: CCCCCc1ccc(S(=O)(=O)NCCc2c[nH]c3ccccc23)cc1

B1: Polyunsaturated fatty acid lipoxygenase ALOX15 (Oryctolagus cuniculus), P12530 (protein)
chain: MGVYRVCVSTGASIYAGSKNKVELWLVGQHGEVELGSCLRPTRNKEEEFKVNVSKYLGSLLFVRLRKKHFLKEDAWFCNWISVQALGAAEDKYWFPCYRWVVGDGVQSLPVGTGCTTVGDPQGLFQKHREQELEERRKLYQWGSWKEGLILNVAGSKLTDLPVDERFLEDKKIDFEASLAWGLAELALKNSLNILAPWKTLDDFNRIFWCGRSKLARRVRDSWQEDSLFGYQFLNGANPMLLRRSVQLPARLVFPPGMEELQAQLEKELKAGTLFEADFALLDNIKANVILYCQQYLAAPLVMLKLQPDGKLMPMVIQLHLPKIGSSPPPLFLPTDPPMVWLLAKCWVRSSDFQVHELNSHLLRGHLMAEVFTVATMRCLPSIHPVFKLIVPHLRYTLEINVRARNGLVSDFGIFDQIMSTGGGGHVQLLQQAGAFLTYRSFCPPDDLADRGLLGVESSFYAQDALRLWEIISRYVQGIMGLYYKTDEAVRDDLELQSWCREITEIGLQGAQKQGFPTSLQSVAQACHFVTMCIFTCTGQHSSIHLGQLDWFTWVPNAPCTMRLPPPTTKDATLETVMATLPNLHQSSLQMSIVWQLGRDQPIMVPLGQHQEEYFSGPEPRAVLEKFREELAIMDKEIEVRNEKLDIPYEYLRPSIVENSVAI
- Km [19]: Active
